Data: PMC12058896, “Potent antimicrobial activity of hydrogel loaded with the antimicrobial peptide, D-Bac8c^2,5 Leu, against monospecies and polymicrobial biofilms of Staphylococcus aureus and Pseudomonas aeruginosa” (Frontiers in Microbiology, 2025)
In brackets after ≈: the same amount, converted by molar mass. Marks after values point to notes of the source that are not given here. Non-standard residues stand in square brackets, D forms with d. Residues, ends and D or L forms follow the SMILES beside them.

What was measured:
[1] = tested on: PAO1 + USA300 polymicrobial biofilm; test: Static polymicrobial biofilm, CFU enumeration; type: cell-based, S. aureus + P. aeruginosa; settings: 24 h biofilm PAO1 + USA300, 256 μg/mL, 6 h, 37°C
Procedure: Biofilms were formed under static conditions using flat 96-well polystyrene plates as described previously with few modifications ([Nasreddine et al., 2018]). Briefly, overnight cultures in BHI were washed and diluted 1:200 in fresh Bolton Broth media supplemented with 50% bovine heparin plasma, and 5% laked horse blood. From this suspension, 100 μL was used to inoculate the microtiter plate wells prior to static incubation at 37°C for 24 h, 3 days and 5 days. The media in each well was changed daily during prolonged incubation periods (3 and 5 days). Following the initial incubation period and washing, 100 μL of D-Bac8c^2,5 Leu, was added to each test well at 37°C for 6 h at a concentration range of 64–256 μg/mL. After incubation with D-Bac8c^2,5 Leu, biofilms were washed twice with PBS and biofilm assessment was performed. For the polymicrobial biofilms, a bacterial solution ratio 1:1 of S. aureus and P. aeruginosa at 1 × 10^5 CFU/mL each was used to inoculate the wells. In each assay, inoculated medium without antimicrobials and uninoculated medium served as growth and sterility controls, respectively. Experiments were conducted in triplicate, and independent replicates were performed three times to yield n = 3.
After treatment, formed biofilms were washed twice with sterile PBS and then suspended in TrypLE solution (Gibco, Dublin, Ireland). A serial of 10-fold dilutions of the suspended biofilms were performed in 96-well flat bottom microplates. Then 10 μL of each dilution was plated in triplicate on MH agar using the drop method. For polymicrobial biofilms, dilutions were plated on Mannitol Salt Agar and MacConkey Agar. After overnight incubation at 37°C, CFU were counted and results were expressed as log10CFU/mL.

[2] = tested on: THP-1; type: cell-based, human; settings: 24 h
Procedure: Sigma-Aldrich, Ireland). […] At 90% confluence, cells were centrifuged and diluted to a 1:5 ratio with complete RPMI. THP-1 cells were seeded in a 96 well plate at a density of 1 × 10^5 cells/mL with increasing concentrations of D-Bac8c^2,5 Leu. Cells were incubated for 24 h at 37°C with 5% CO2, 95% humidity. […] The absorbance was measured at 595 nm in a microplate spectrophotometer. Cell viability was calculated as a percentage of a control treated with PBS. Two technical replicates were performed each day on three independent days.

For `CC(C)C[C@@H](NC(=O)[C@H](N)CCCNC(=N)N)C(=O)N[C@H](Cc1c[nH]c2ccccc12)C(=O)N[C@@H](C(=O)N[C@H](CC(C)C)C(=O)N[C@H](Cc1c[nH]c2ccccc12)C(=O)N[C@H](CCCNC(=N)N)C(=O)N[C@H](CCCNC(=N)N)C(N)=O)C(C)C` [D-Bac8c^2,5 Leu] (H-[dR][dL][dW][dV][dL][dW][dR][dR]-NH2; N-terminus assumed), the “Log change vs. untreated control” value [1] was −2.44*** Log and the “IC50 (50% cell viability), MTT” value [2] was 331.7 mg/L (≈ 280 µM).
